The results in this text go back to patent publication US8664226B2, “Compound having 3-heteroarylpyrimidin-4-(3H)-one structure and pharmaceutical preparation containing same” (Kowa Company, Ltd., priority 2009, dated 2014).

The structures appear in SMILES notation.

Test [1] concerns the target T1, angiotensin II type 1 receptor (Oryctolagus cuniculus, UniProt P34976).
T1 construct: By using a specimen of isolated rabbit blood vessels; from tissue; host or cells: rabbit thoracic aorta ring (New Zealand White, male)
T1 sequence (P34976 1-359): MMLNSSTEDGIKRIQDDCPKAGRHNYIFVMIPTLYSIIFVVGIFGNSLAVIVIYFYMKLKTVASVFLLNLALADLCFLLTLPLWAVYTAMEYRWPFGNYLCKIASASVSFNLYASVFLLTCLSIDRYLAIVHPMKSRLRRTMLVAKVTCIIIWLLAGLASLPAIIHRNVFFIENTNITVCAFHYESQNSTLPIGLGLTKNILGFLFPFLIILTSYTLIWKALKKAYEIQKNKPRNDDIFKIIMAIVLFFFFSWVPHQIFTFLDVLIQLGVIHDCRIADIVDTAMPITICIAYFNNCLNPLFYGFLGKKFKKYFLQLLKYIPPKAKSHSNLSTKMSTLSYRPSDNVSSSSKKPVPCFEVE
Briefly: Angiotensin II antagonistic activity in isolated rabbit blood vessels. Particulars: angiotensin II (10 nM)-induced contraction of rabbit thoracic aorta ring. The gist of the method: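 Contraction of isolated rabbit vessel induced by angiotensin II, in a magnus bath at 37° C gassed with 95% O2/5% CO2. Responses expressed as % of the 10 nM angiotensin II contraction without compound, and IC50 calculated from the concentration-response curve.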

Another test deals with T2, human PPARγ2 (Homo sapiens, UniProt P37231).
T2 construct: the amino acids 182 to 505 of human PPARγ2; expressed in transfected cells; host or cells: COS7 cells
Description: PPARγ activation activity, Gal4 chimera luciferase transfection assay using COS7 cells. The format is cell-based. Particulars: for EC50 / Emax: COS7 cells; for EC50: Gal4-human PPARγ2 LBD chimera, luciferase reporter, 16 hours, read-out: EC50; for Emax: COS-7, 16 h, maximum activity strength relative to the maximum activity of rosiglitazone, read-out: % MAX vs Rosiglitazone. How it is done:
The agonistic activity of the compounds of the invention on PPARγ was measured based on the transfection assay using COS7 cells (DS Pharma Biomedical Co., Ltd., Osaka, Japan), which are the cell line derived from the kidney of the African green monkey. COS7 cells were cultured under 5% CO2 concentration, and DMEM medium containing 10% fetal bovine serum, glutamic acid, and antibiotics was used as a medium.
As an expression vector, a chimera in which DNA binding domain of Gal4, which is a yeast transcription factor, and ligand binding domain of human PPAR^γ2 are fused, i.e., a fused product between the amino acids 1 to 147 of Gal4 transcription factor and the amino acids 182 to 505 of human PPARγ2, was used. Furthermore, as a reporter vector, a firefly luciferase containing five copies of Gal4 recognition sequence in the promoter region was used. Plasmid transfection to the cells was performed according to a method which uses jetPEI (trade name, manufactured by Funakoshi Co., Ltd., Tokyo, Japan). Furthermore, β-galactosidase expression vector was employed as an internal standard.
After the transfection of the cells, the medium was replaced with a DMEM medium (containing 1% serum) added with the compound, and the cells were further cultured for 16 hours. After that, the luciferase activity and β-galactosidase activity in the cell lysis solution were measured.
For the present test, dimethyl sulfoxide (DMSO) was used for dissolution and dilution of the test compounds, and during the cell treatment, the DMSO concentration in DMEM medium (containing 1% serum) was adjusted to 0.1%. As a positive compound, rosiglitazone (trade name, manufactured by ALEXIS Corporation, Switzerland) was used. […] The 50% effective concentration of the test compound (EC50, 50% effect concentration) was calculated by using SAS Preclinical Package Ver5.0 (trade name, manufactured by SAS institute Japan Co., Tokyo, Japan), which is a statistical analysis program.
Background: Reporter assays use an easily measured gene product as a stand-in for the process of interest.

T2 sequence (P37231 182-505): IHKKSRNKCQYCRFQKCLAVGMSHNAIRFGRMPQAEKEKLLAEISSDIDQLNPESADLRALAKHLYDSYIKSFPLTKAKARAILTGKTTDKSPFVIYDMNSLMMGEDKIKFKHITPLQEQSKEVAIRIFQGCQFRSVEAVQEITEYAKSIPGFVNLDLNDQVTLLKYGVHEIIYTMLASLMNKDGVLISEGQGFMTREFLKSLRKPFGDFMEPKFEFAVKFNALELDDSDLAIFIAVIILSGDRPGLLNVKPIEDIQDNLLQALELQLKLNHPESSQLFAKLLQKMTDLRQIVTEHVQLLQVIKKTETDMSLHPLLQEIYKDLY
T2 sequence (P04386 1-147 partner limits assumed): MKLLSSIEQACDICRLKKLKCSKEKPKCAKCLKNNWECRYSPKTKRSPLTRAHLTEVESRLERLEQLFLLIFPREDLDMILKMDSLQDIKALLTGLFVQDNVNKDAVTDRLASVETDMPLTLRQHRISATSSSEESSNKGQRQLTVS

`CCCCc1nc(C)n(-c2ccnn2C)c(=O)c1Cc1ccc(-c2ccccc2-c2nnn[nH]2)cc1` [Example 64, 5-{[2′-(1H-tetrazol-5-yl)biphenyl-4-yl]methyl}-6-butyl-2-methyl-3-(1-methyl-1H-pyrazol-5-yl)pyrimidin-4 (3H)-one]: the IC50 (as a rule, the point on the concentration scale where inhibition reaches its midpoint) in test [1] was 652 nM. Also, the EC50 (as a rule, the concentration at which the effect is half-maximal) on human PPARγ2 amounted to 3300 nM.
As for `CCCCc1nc(C)n(-c2ccc3ccccc3n2)c(=O)c1Cc1ccc(-c2ccccc2-c2nnn[nH]2)cc1` [Example 66, 5-{[2′-(1H-tetrazol-5-yl)biphenyl-4-yl]methyl}-6-butyl-2-methyl-3-(quinolin-2-yl)pyrimidin-4 (3H)-one], half-maximal inhibition in test [1] (IC50) was put at 432 nM. In addition, at human PPARγ2, the EC50 came to 820 nM and the Emax was found to be 55.5%. At human PPARγ2 (maximum PPARγ activity, telmisartan 30 to 50% of rosiglitazone under the same condition), the “maximum activity compared with telmisartan” value is “the same or greater than that of telmisartan”.
Regarding `CCCCc1nc(C)n(-c2nccc3ccccc23)c(=O)c1Cc1ccc(-c2ccccc2-c2nnn[nH]2)cc1` [Example 67, 5-{[2′-(1H-tetrazol-5-yl)biphenyl-4-yl]methyl}-6-butyl-3-(isoquinolin-1-yl)-2-methylpyrimidin-4 (3H)-one], in test [1], the concentration for half-maximal inhibition (IC50) is under 10000 nM. Besides, at human PPARγ2, the concentration for a half-maximal effect (EC50) amounted to 740 nM.
For `CCCCc1nc(C)n(-c2cc3ccccc3cn2)c(=O)c1Cc1ccc(-c2ccccc2-c2nnn[nH]2)cc1` [Example 68, 5-{[2′-(1H-tetrazol-5-yl)biphenyl-4-yl]methyl}-6-butyl-3-(isoquinolin-3-yl)-2-methylpyrimidin-4 (3H)-one] the same measures were 223 nM and 2610 nM.
`CCCCc1nc(C)n(-c2nc3ccccc3n2C)c(=O)c1Cc1ccc(-c2ccccc2-c2nnn[nH]2)cc1` [Example 69, 5-{[2′-(1H-tetrazol-5-yl)biphenyl-4-yl]methyl}-6-butyl-2-methyl-3-(1-methyl-1H-benzimidazol-2-yl)pyrimidin-4 (3H)-one] gave an IC50 in test [1] of 958 nM. Further, on human PPARγ2, the EC50 was found to be 2690 nM and the Emax was determined as 31.6%.
